Data published in US20130058903A1, “Stem-Cell Material and Method of Use” (priority 2009, published 2013).

Experiments:
STAT3 = experiment: Western blot of STAT3 phosphorylation in C2C12 myocytes; assay type: cell-based; settings: C2C12 pretreated 2 hours, then MSC-CM for 30 min
Procedure: FIG. 8: Trophic actions of MSCs stimulate JAK/STAT3 signaling in cultured skeletal myocytes. C2C12 myocytes were plated in 6-well plates (10^5 cells per well). After overnight plating, cells were exposed to the indicated conditioned medium. A: Western blot assays of C2C12 cells exposed to MSC-CM for 5 min, 30 min, 6 hr, and 24 hr. B: In situ immunostaining of control medium- and MSC-CM-treated C2C12 cells (30 min incubation) using a p-STAT3 antibody (red) and β-actin antibody (green). Alexa647- and FITC-conjugated secondary antibodies were used. Nuclei were stained with DAPI. C: Western blot assays comparing the effects of porcine MSC-CM, a human embryonic kidney cell line (HEK293) CM, IL-6, IL-11, and LIF on STAT3 phosphorylation in C2C12 myocytes 30 min after treatment. Fifty ng/ml recombinant proteins were used. D: CT for human MSC IL-6-type cytokines. The CT for the house-keeping gene β2-microglobulin and GAPDH are ˜17 and ˜15, respectively.
FIG. 9: gp130/STAT3 signaling stimulates growth factor expression in cultured skeletal myocytes. C2C12 myocytes were treated with […] of a gp130 antibody (R&D Systems; #AF468) or control IgG for one hour at 37° C. The IgG isotype antibody was used as a negative control. Cells were then briefly rinsed and treated with MSC-CM for 30 min to assess STAT3 activation or 3 days for growth factor production. […]

JAK/STAT3 signaling = experiment: Extracardiac MSC therapy with WP1066 (echocardiography, ELISA); assay type: in vivo, hamster
Procedure: FIG. 14: WP1066 inhibits JAK/STAT3 signaling and abrogates MSC-mediated cardiac repair. […] Cells were pretreated with WP1066 at the indicated dosages for 2 hours, following which cells were stimulated with MSC-CM for 30 min. Western blot assays were performed to determine STAT3 activation. B: The extracardiac MSC therapy was carried out as described previously (54). The four treatment groups (n=5 per group) were: WP1066, drug vehicle (PEG), MSC plus WP1066, and MSC plus drug vehicle (MSC+PEG). qRT-PCR assays of myocardial ANP and BNP expression (n=4 per group) after one month were presented. ANOVA was performed to assess statistical significance. *P<0.05 vs. PEG.
FIG. 15: WP1066 blocks MSC-mediated improvement in cardiac function. Cardiac function was determined by blind-folded echocardiography after MSC administration. A: Representative M-mode recording for the four animal groups at 4 weeks. B: LVEF at 2 and 4 weeks after MSCs. ANOVA was performed to assess statistical significance. *P<0.05 vs. PEG; †P<0.05 vs. WP1066; #P<0.05 vs. pre-injection.
FIG. 16: Inhibition of JAK/STAT3 signaling abolishes MSC-induced tissue growth factor levels. Soluble fractions of total hamstring extracts (panel A) and plasma samples (panel B) were assayed using rodent-specific HGF and VEGF ELISA kits (n=4 per group). Tissue growth factor concentrations were expressed as ng per mg soluble proteins. ANOVA was performed to assess statistical significance. *P<0.05 vs. PEG; †P<0.05 vs. WP1066; #P<0.05 vs. MSC+WP1066.

Question: `C[C@H](NC(=O)/C(C#N)=C/c1cccc(Br)n1)c1ccccc1` [WP1066] was tested. Which STAT3 phosphorylation (STAT3) did it give?
Answer: Inhibitory effect

Question: What about the “MSC-mediated improvement in cardiac function (LVEF)” value (JAK/STAT3 signaling; 2 and 4 weeks after MSCs) of the same molecule?
Answer: blocks

Question: And the “MSC-induced tissue growth factor levels (HGF, VEGF)” value (JAK/STAT3 signaling; hamstring extracts and plasma)?
Answer: abolishes

Question: And the MSC-mediated cardiac repair (JAK/STAT3 signaling; myocardial ANP and BNP expression after one month)?
Answer: abrogates
